The source of these data is patent US10968193B2, “Antidiabetic bicyclic compounds” (Merck Sharp & Dohme Corp., priority 2014, dated 2021).

T1 sequence (O14842 whole entry): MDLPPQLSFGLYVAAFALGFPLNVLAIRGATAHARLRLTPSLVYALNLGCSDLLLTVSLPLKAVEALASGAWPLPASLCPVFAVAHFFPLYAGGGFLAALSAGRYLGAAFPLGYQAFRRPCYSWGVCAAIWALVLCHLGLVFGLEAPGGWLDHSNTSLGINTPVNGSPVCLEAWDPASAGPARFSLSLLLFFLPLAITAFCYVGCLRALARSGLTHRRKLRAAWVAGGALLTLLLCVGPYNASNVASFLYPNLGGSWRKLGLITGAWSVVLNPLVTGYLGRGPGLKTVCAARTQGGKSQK

This assay concerns the target T1, human GPR40 (Homo sapiens, UniProt O14842).
T1 construct: expressed in transfected cells; host or cells: HEK cells stably expressing the aequorin reporter
Briefly: Inositol Phosphate Turnover (IP1) Assay 3. The format is cell-based. The note with it: HEK cells stably expressing human GPR40. Summed up: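 HEK cells stably expressing human GPR40, plated 16 h before, were treated with compound for 60 min at 37 °C in stimulation buffer. IP1 measured by HTRF (665/620 nm ratio) against an IP1 standard curve; activity normalized to a reference compound, EC50 from 4-parameter fit.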
In turn, `CCOc1cc(-c2ccc(C3CCc4ccc([C@H](C5CC5)[C@H](C)C(=O)O)cc4O3)cc2CN(CC)CC)c(F)cn1` (single isomer, unassigned) [Example 172, (2S, 3R)-3-cyclopropyl-3-((S or R)-2-(3-((diethylamino)methyl)-4-(2-ethoxy-5-fluoropyridin-4-yl)phenyl)chroman-7-yl)-2-methylpropanoic acid] had a 50% effective concentration (EC50) of 2.3 nM.
The same measure for `COc1cc(-c2ccc(C3CCc4ccc([C@H](C5CC5)[C@H](C)C(=O)O)c(F)c4O3)cc2CN2CCCC2)c(F)cn1` (single isomer, unassigned) [Example 198]: 4.7 nM.
With `COc1cc(-c2ccc([C@H]3CCc4ccc([C@H](C5CC5)[C@H](C)C(=O)O)cc4O3)cc2CN2C[C@H]3C[C@H]3C2)c(F)cn1` [Example 138], a half-maximal effect (EC50) was put at 0.3 nM.
The same measure for `COc1cc(-c2ccc(C3CCc4ccc([C@H](C5CC5)[C@H](C)C(=O)O)cc4O3)c(CN(C(C)C)C(C)C)c2)c(F)cn1` (single isomer, unassigned) [Example 126b]: 2.7 nM; for `COc1cc(-c2ccc([C@H]3CCc4ccc([C@H](C5CC5)[C@H](C)C(=O)O)cc4O3)cc2CN(C(C)C)C(C)C)c(F)cn1` [Example 170]: 0.07 nM; for `COc1cc(-c2ccc(C3CCc4ccc([C@H](C5CC5)[C@H](C)C(=O)O)c(F)c4O3)cc2CN2CCCCC23CC3)c(F)cn1` (single isomer, unassigned) [Example 202]: 0.16 nM.
The same measure for `COc1cc(-c2ccc(C3CCc4ccc([C@H](C5CC5)[C@H](C)C(=O)O)cc4O3)cc2CN(C)C(C)(C)C)ccn1` (stereo partly shown) [Example 288]: 21 nM; for `COc1cc(-c2ccc(C3CCc4ccc([C@H](C5CC5)[C@H](C)C(=O)O)cc4O3)cc2CN2CCCC3(CC3)C2)ccn1` (stereo partly shown) [Example 277]: 1.9 nM.
As to `COc1cc(-c2ccc(C3CCc4ccc([C@H](C5CC5)[C@H](C)C(=O)O)cc4O3)cc2CN2[C@@H](C)CCC[C@@H]2C)c(F)cn1` (stereo partly shown) [Example 231], the EC50 turned out to be 0.16 nM. This EC50 lies about 12-fold lower than the previous one.
`COc1cc(-c2ccc(C3CCc4ccc([C@H](C5CCC5)[C@H](C)C(=O)O)cc4O3)cc2CN2CCCC2(C)C)c(F)cn1` (single isomer, unassigned) [Example 109] showed a concentration giving a half-maximal response (EC50) of 0.1 nM.
For `COc1cc(-c2ccc([C@@H]3CCc4ccc([C@H](C5CC5)[C@H](C)C(=O)O)cc4O3)cc2CNC(C)C)c(F)cn1` [Example 232], the EC50 is 36 nM.
As to `COc1cc(-c2ccc(C3CCc4ccc([C@H](C5CC5)[C@H](C)C(=O)O)cc4O3)c(CN(C(C)C)C(C)C)c2)ccn1` (single isomer, unassigned) [Example 115a], the EC50 is 0.1 nM.
As to `COc1cc(-c2ccc(C3CCc4ccc([C@H](C5CC5)[C@H](C)C(=O)O)cc4O3)cc2CN2[C@H](C)CC[C@H]2C)ccn1` (stereo partly shown) [Example 274], the EC50 is 4.3 nM.
The same measure for `CCC1CCCCN1Cc1cc(C2CCc3ccc(C(C4CC4)C(C)C(=O)O)cc3O2)ccc1-c1ccnc(OC)c1` (single isomer, unassigned) [Example 258a]: 1.7 nM; for `CCN(Cc1cc([C@H]2CCc3ccc([C@H](C4CC4)[C@H](C)C(=O)O)cc3O2)ccc1-c1cc(OC)ncc1F)C(C)C` [Example 139]: 0.5 nM; for `CCN(CC)Cc1cc(C2CCc3ccc([C@H](C4CC4)[C@H](C)C(=O)O)cc3O2)c(F)cc1-c1ccnc(OC)c1` (single isomer, unassigned) [Example 181]: 14 nM.
The molecule `COc1cc(-c2ccc(C3CCc4ccc([C@H](C5CC5)[C@H](C)C(=O)O)cc4O3)cc2CN2CCC[C@H]2C)ccn1` (stereo partly shown) [Example 280] yielded an EC50 of 16 nM.
The same measure for `CCC1CCCCN1Cc1cc(C2CCc3ccc([C@H](C4CC4)[C@H](C)C(=O)O)cc3O2)ccc1-c1cc(OC)ncc1F` (single isomer, unassigned) [Example 273a]: 0.08 nM; for `COc1cc(-c2ccc(C3CCc4ccc([C@H](C5CC5)[C@H](C)C(=O)O)cc4O3)cc2CN2C(C)(C)CCCC2(C)C)c(F)cn1` (stereo partly shown) [Example 230]: 0.09 nM.
